Measurements as given in patent US20100204265A1 (priority 2009, published 2010).

System: not given
Test: not given
Settings: patients treated at currently recommended doses; cited from earlier work

Compound | significant hemolysis, share of patients
NC(=O)c1ncn([C@@H]2O[C@H](CO)[C@@H](O)[C@H]2O)n1 [Ribavirin, 1-P-D-ribofuranosyl-1H-1,2,-4-triazole-3-carboxamide] | 10-20%

System: ET (Huh-lucubineo-ET) cell line harboring I389luc-ubi-neo/NS3-3′/ET HCV replicon
Test: Replicon assay (HCV replicon, luciferase readout)
Assay type: cell-based
Settings: Hepatitis C virus
Procedure, shortened: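 Compounds at 10-point 2-fold dilutions (overall 0.1 nM to […], 0.5% DMSO) were applied to ET cells carrying a luciferase-neo HCV replicon, seeded a day earlier. After 48-72 hours, luciferase-based % inhibition was fitted with a Hill equation for EC50, and parallel WST-1 readings gave TC50.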

Compound | EC50 [µM]
COC(=O)C(NC(=O)Cc1cn2cc(-c3ccoc3)cc(C(F)(F)F)c2n1)C(C)C (stereo not shown) [Compound 310, 2-[2-(6-Furan-3-yl-8-trifluoromethyl-imidazo[1,2-a]pyridin-2-yl)-acetylamino]-3-methyl-butyric acid methyl ester] | > 50
COC(=O)C(Cc1c[nH]c2ccccc12)NC(=O)Cc1cn2cc(-c3ccoc3)cc(C(F)(F)F)c2n1 (stereo not shown) [Compound 311, 2-[2-(6-Furan-3-yl-8-trifluoromethyl-imidazol[1,2-a]pyridin-2-yl)-acetylamino]-3-(1H-indol-3-yl)-propionic acid methyl ester] | > 50
COC(=O)C(Cc1ccccc1)NC(=O)Cc1cn2cc(-c3ccoc3)cc(C(F)(F)F)c2n1 (stereo not shown) [Compound 312, 2-[2-(6-Furan-3-yl-8-trifluoromethyl-imidazo[1,2-a]pyridin-2-yl)-acetylamino]-3-phenyl-propionic acid methyl ester] | > 50
NC(=O)[C@H]1CCCN1C(=O)Cc1cn2cc(-c3ccoc3)cc(C(F)(F)F)c2n1 [Compound 313, 1-[2-(6-Furan-3-yl-8-trifluoromethyl-imidazo[1,2-a]pyridin-2-yl)-acetyl]-pyrrolidine-2-carboxylic acid amide] | > 50
CN(C)C(=O)[C@H]1CCCN1C(=O)Cc1cn2cc(-c3ccoc3)cc(C(F)(F)F)c2n1 [Compound 314, 1-[2-(6-Furan-3-yl-8-trifluoromethyl-imidazo[1,2-a]pyridin-2-yl)-acetyl]-pyrrolidine-2-carboxylic acid dimethylamide] | > 50
CS(=O)(=O)NC1CCN(C(=O)c2nc3c(C(F)(F)F)cc(-c4ccoc4)cn3c2Cl)CC1 [Compound 322, N-[1-(3-Chloro-6-furan-3-yl-8-trifluoromethyl-imidazo[1,2-a]pyridine-2-carbonyl)-piperidin-4-yl]-methanesulfonamide] | 0.266
CC(=O)NC1CCN(C(=O)c2nc3c(C(F)(F)F)cc(-c4ccoc4)cn3c2Cl)CC1 [Compound 323, N-[1-(3-Chloro-6-furan-3-yl-8-trifluoromethyl-imidazo[1,2-a]pyridine-2-carbonyl)-piperidin-4-yl]-acetamide] | 10.7
O=C1CCCC2(CCN(C(=O)c3nc4c(C(F)(F)F)cc(-c5ccoc5)cn4c3Cl)CC2)N1 [Compound 324, 9-(3-Chloro-6-furan-3-yl-8-trifluoromethyl-imidazo[1,2-a]pyridine-2-carbonyl)-1,9-diaza-spiro[5.5]undecan-2-one] | > 50
CC(=O)N1CCCN(C(=O)c2nc3c(C(F)(F)F)cc(-c4ccoc4)cn3c2Cl)CC1 [Compound 325, 1-[4-(3-Chloro-6-furan-3-yl-8-trifluoromethyl-imidazo[1,2-a]pyridine-2-carbonyl)-[1,4]diazepan-1-yl]-ethanone] | > 50
CS(=O)(=O)N1CCCN(C(=O)c2nc3c(C(F)(F)F)cc(-c4ccoc4)cn3c2Cl)CC1 [Compound 326, (3-Chloro-6-furan-3-yl-8-trifluoromethyl-imidazo[1,2-a]pyridin-2-yl)-(4-methanesulfonyl-[1,4]diazepan-1-yl)-methanone] | 11.4
O=C1NC(=O)C2(CCN(C(=O)c3nc4c(C(F)(F)F)cc(-c5ccoc5)cn4c3Cl)CC2)N1 [Compound 330, 8-(3-Chloro-6-furan-3-yl-8-trifluoromethyl-imidazo[1,2-a]pyridine-2-carbonyl)-1,3,8-triaza-spiro[4.5]decane-2,4-dione] | > 50
COC(=O)N1CCCN(C(=O)c2nc3c(C(F)(F)F)cc(-c4ccoc4)cn3c2Cl)CC1 [Compound 331, 4-(3-Chloro-6-furan-3-yl-8-trifluoromethyl-imidazo[1,2-a]pyridine-2-carbonyl)-[1,4]diazepane-1-carboxylic acid methyl ester] | 26.8
